Laboratory results as given in patent publication US5534521A, “Benzimidazole compounds” (G. D. Searle & Co., priority 1994, dated 1996).

Experiments:
5-HT3 = test: Bezold-Jarisch Reflex (5-HT-induced bradycardia in anesthetized mice); type: in vivo; conditions: i.p., 30 min before 5-HT (0.25 mg/kg i.v.), >50 percent reduction in bradycardic response vs vehicle
Procedure: (§1) 5-HT4 agonist activity was determined in the in vitro rat tunica muscularis mucosae (TMM) assay. (Baxter et al., Naunyn Schmied Arch. Pharmacol, 1991, 343, 439). The 5-HT4 agonist or antagonist activity and/or 5-HT3 antagonist activity of the compounds of the invention herein, can be determined by the assays as described herein, without undue experimention.
The compound to be evaluated was administered i.p. (mg/kg) to a group of 3 mice.
This method has been described by Saxena, P. R. and Lawang, A., Arch. Int. Pharmacodyn., 277:235-252, 1985.

5-HT3 receptor = molecular target: T1, 5-HT3 receptor (Rattus norvegicus, UniProt P35563); test: Serotonin (5-HT3) radioligand receptor binding, [3H]-GR65630, rat brain cortex membranes
T1 construct: Brain cortices were obtained from male rats and a membrane fraction prepared by standard techniques; from tissue; host or cells: rat brain cortex membranes (male rats)
T1 sequence (P35563 24-483): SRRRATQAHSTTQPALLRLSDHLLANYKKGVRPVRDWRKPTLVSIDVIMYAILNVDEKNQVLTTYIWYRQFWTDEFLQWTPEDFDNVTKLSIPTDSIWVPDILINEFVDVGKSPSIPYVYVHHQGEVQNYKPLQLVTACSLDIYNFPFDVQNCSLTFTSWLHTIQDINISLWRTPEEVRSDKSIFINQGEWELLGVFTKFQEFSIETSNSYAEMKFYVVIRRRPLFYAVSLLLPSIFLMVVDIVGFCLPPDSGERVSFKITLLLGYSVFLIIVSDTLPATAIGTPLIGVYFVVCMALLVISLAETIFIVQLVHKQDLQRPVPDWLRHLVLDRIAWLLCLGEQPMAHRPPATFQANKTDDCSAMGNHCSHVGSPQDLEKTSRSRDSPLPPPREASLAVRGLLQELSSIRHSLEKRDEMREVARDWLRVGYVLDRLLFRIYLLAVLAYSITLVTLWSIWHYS
Procedure: as §1
GR65630 binds to the 5-HT3 receptor. Brain cortices were obtained from male rats and a membrane fraction prepared by standard techniques. 0.04 mg of membrane prep was incubated with 0.2 nM […] for 60 minutes at 22° C. […] Kilpatrick G. J., Jones B. J. and Tyers M. B. Identification and distribution of 5-HT3 receptors in rat brain using radioligand binding assay. Nature, 330: 746-748, 1987.

5-HT4 receptor = molecular target: T2, 5-HT4 receptor (Rattus norvegicus, UniProt Q62758); test: cell-based; conditions: carbachol (3 μM) contracted rat tunica muscularis mucosae, 37° C., cumulative addition, tissues from 5 rats; read-out: 5-HT4 Agonism (Rat TMM) In Vitro Assay: EC50 Values
T2 construct: One 2 cm segment of intrathoracic esophagus proximal to the diaphragm was removed from male rats; from tissue; host or cells: rat intrathoracic esophagus, inner tunica muscularis mucosae (male rats)
Procedure: as §1
Agonist activity was determined utilizing relaxation of carbachol-contracted rat tunica muscularis mucosae. One 2 cm segment of intrathoracic esophagus proximal to the diaphragm was removed from male rats, weighing approximately 300 gm, and the outer muscle layers removed. The inner tunica muscularis mucosa was mounted under 0.2-0.3 g of tension in a tissue bath containing oxygenated Tyrode's solution at 37° C. […] Following a 30 min equilibrium period, tissues were isometrically contracted with carbachol (3 μM) to obtain a tonic contraction. A stable plateau was obtained within 20 min when test compound was added cumulatively to relax the muscle strip. EC50 values were obtained for each agonist in tissues from 5 rats.

T2 sequence (Q62758 whole entry): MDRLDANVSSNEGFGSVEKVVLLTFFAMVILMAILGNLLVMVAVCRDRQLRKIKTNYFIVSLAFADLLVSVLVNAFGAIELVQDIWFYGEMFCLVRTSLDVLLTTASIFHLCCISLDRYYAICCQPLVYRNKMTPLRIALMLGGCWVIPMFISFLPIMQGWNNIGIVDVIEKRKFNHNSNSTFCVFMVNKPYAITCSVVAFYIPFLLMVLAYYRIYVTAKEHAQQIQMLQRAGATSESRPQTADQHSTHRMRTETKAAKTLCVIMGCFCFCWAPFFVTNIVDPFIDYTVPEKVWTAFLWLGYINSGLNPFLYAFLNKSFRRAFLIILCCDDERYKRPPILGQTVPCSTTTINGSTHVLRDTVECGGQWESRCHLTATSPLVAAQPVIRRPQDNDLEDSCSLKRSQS

CN1[C@@H]2C[C@@H](OC(=O)[C@H](CO)c3ccccc3)C[C@H]1[C@@H]1O[C@@H]12 [scopolamine]
Minimum Effective Dose (MED) (5-HT3): 2.5 mg/kg

CC(C)n1c(=O)n(C(=O)NCCC23CCCN2CCC3)c2ccccc21 [Example 13, N-[2-(hexahydro-7aH-pyrrolizin-7a-yl)ethyl]-2,3-dihydro-3-(1-methylethyl)-2-oxo-1H-benzimidazole-1-carboxamide]
Minimum Effective Dose (MED) (5-HT3): 10 mg/kg

Cc1nc[nH]c1CCC(=O)c1cn(C)c2ccccc12 [GR65630]
% Specific Binding (5-HT3 receptor; radioligand, non-specific binding in the presence of 1 uM ICS 205-930): 70%

CC(C)n1c(=O)n(C(=O)NC[C@@H]2CCN3CCC[C@@H]23)c2ccccc21 (relative stereo) [Example 23, cis-N-[(hexahydro-1H-pyrrolizin-1-yl)methyl]-2,3-dihydro-3-(1-methylethyl)-2-oxo-1H-benzimidazole-1-carboxamide]
Minimum Effective Dose (MED) (5-HT3): 1 mg/kg | EC50 (5-HT4 receptor): 374 nM | Ki (5-HT3 receptor): 75 nM

CCN(CC)CCNC(=O)c1cc(Cl)c(N)cc1OC [metoclopramide]
Minimum Effective Dose (MED) (5-HT3): 5 mg/kg

O=c1[nH]c2ccccc2n1CCCN1CCC(n2c(=O)[nH]c3cc(Cl)ccc32)CC1 [domperidone]
Minimum Effective Dose (MED) (5-HT3): > 10 mg/kg

CCC(CO)NC(=O)C1C=C2c3cccc4c3c(cn4C)CC2N(C)C1 (stereo not drawn) [methylsergide]
Minimum Effective Dose (MED) (5-HT3): > 10 mg/kg

CC(C)n1c(=O)n(C(=O)NC2C3CC4CC2CN(C4)C3)c2ccc(Cl)cc21 (stereo not drawn) [Example 17, N-(1-azatricyclo[3.3.1.1^3,7]decan-4-yl)-5-chloro-2,3-dihydro-3-(1-methylethyl)-2-oxo-1H-benzimidazole-1-carboxamide]
inhibition at 10 µM (5-HT3 receptor; 1 h, read-out: Effect of Compounds on [H]-GR65630 Bound (0.2 nM), % @ 10,000 nM): 41%

CC(C)n1c(=O)n(C(=O)NC2C3CC4CC2CN(C4)C3)c2cc(Cl)ccc21 (stereo not drawn) [Example 22B, N-(1-azatricyclo[3.3.1.1^3,7]decan-4-yl)-6-chloro-2,3-dihydro-3-(1-methylethyl)-2-oxo-1H-benzimidazole-1-carboxamide]
Ki (5-HT3 receptor): 4.9 nM

CN1C2CCCC1CC(NC(=O)c1nn(C)c3ccccc13)C2 (stereo not drawn) [BRL-43694]
Minimum Effective Dose (MED) (5-HT3): 0.05 mg/kg
